# Data: publication PMC9103758 (International Journal of Molecular Sciences, 2022)
# “Also recorded” adds a separate entry of the source.
# Test system: ATP-induced intracellular calcium signaling in FRT cells
# Experiment: Intracellular calcium measurement (Fluo-4) in FRT cells
# Assay type: cell-based, rat
# Details: 100 μM ATP
# Description: (A) Representative Fluo4 fluorescence traces from 3 independent experiments in FRT cells. […] (B,C) Representative apical membrane currents from 3–4 independent experiments in FRT cells expressing human ANO1. […] (D) Representative YFP fluorescence traces in FRT cells expressing human ANO2. […] (E) Representative Fluo4 fluorescence traces from 3 independent experiments in FRT cells. Cells were pretreated with DCPIB for 10 min followed by application of 100 μM ATP. (F) Representative apical membrane currents in FRT cells expressing human ANO1.
# FRT cells were plated on 96-well black-walled microplates and loaded with Fluo-4 NW according to the manufacturer’s protocol (Invitrogen, Carlsbad, CA, USA). […] The 96-well plates were transferred to a plate reader for fluorescence assay.
smiles,measurement,setting,value
"COc1cccc(C(c2c(O)c3ccccc3oc2=O)c2c(O)c3ccccc3oc2=O)c1O [VI-116, 3,3′-((2-hydroxy-3-methoxyphenyl)methylene)bis(4-hydroxy-2H-chromen-2-one)]",effect on intracellular calcium signaling,30 μM,weak inhibitory effect
same,effect on ATP-induced increase in intracellular calcium levels,up to 10 μM,no effect; also recorded: did not affect
